Data taken from patent publication US20090298707A1, “SPARSE MATRIX SYSTEM AND METHOD FOR IDENTIFICATION OF SPECIFIC LIGANDS OR TARGETS” (priority 2008, published 2009).

Legend:
[1] = per amino acid; cited from earlier work
[2] = Confocal laser scanning microscopy of labeled peptides on tooth sections; format: binding; conditions: sectioned human tooth, CLSM
Excerpt: The fluorescein-labeled peptides in the initial pilot library were pooled and screened by Confocal Laser Scanning Microscopy as follows. The quadrants of the library were collected into four pools of 9 peptides each. Peptides were screened by exposing the pooled, 5(6)-carboxyfluorescein-labeled peptides to sections taken from human teeth (extracted during normal clinical practice), followed by visualization of the samples by Confocal Laser Scanning Microscopy (CLSM).

S. aureus AM1 = assay: Pulldown binding assay, Langmuir isotherm fit, S. aureus; set-up: species or system Staphylococcus aureus; conditions: for Langmuir Affinity (Ka): association constant from Langmuir isotherm fit, fluorescein-labeled peptide 0-100 μM; for Monolayer Concentration (N): maximum surface concentration from Langmuir fit
Excerpt: (§1) To investigate whether the changes in the observed level of binding were due to changes in the affinities or avidities of the refined peptides for cell surfaces, binding curves were generated for selected peptides and fit to the Langmuir isotherm (where possible), the simplest model describing binding to surfaces (peptides showing either complex or nonspecific binding isotherms were excluded from this analysis).
(§2) Measurements were taken of the absorbance of the labeled peptide at 488 nm (the peak absorbance of the fluorescein label) before and after exposure to the cells. The amount of peptide bound was calculated by comparing the ratio of the final (Af) and initial (Ai) absorbances to the initial concentration (C0)[Cbound=C0(1−(Af/Ai))]. Bacterial surface area per sample was calculated using a stage micrometer to determine the average cell diameter for each species (1.0+/−0.1 μm for S. aureus AM1, 2.7+/−0.1 μm for M. luteus MS2), treating individual cells as discrete spheres. Average cell concentration per unit OD600 was calculated using a hemocytometer.
(§3) Plots were then generated of the amount of peptide bound per m^2 of bacterial surface area vs. the concentration of unbound peptide at equilibrium. Where possible, the resulting isotherms were fit to the Langmuir isotherm (P/A=(KaNCeq)/(1+KaCeq), where P/A represents the molar amount of peptide bound per unit of bacterial surface area, Ka is the association constant of the peptide with the bacterial surface (L/Mol), N is the maximum surface concentration (mol/m^2), and Ceq is the molar concentration of unbound peptide at equilibrium) (Calis et al. (1995) Pharm Res 12(7): 1072-1076). Data plots and curvefits were obtained using Kaleidagraph (Synergy Software).

M. luteus MS2 = assay: Pulldown binding assay, Langmuir isotherm fit, M. luteus; set-up: species or system Micrococcus luteus; conditions: for Langmuir Affinity (Ka): association constant from Langmuir isotherm fit; for Monolayer Concentration (N): maximum surface concentration from Langmuir fit
Excerpt: as §1, §2, §3

[3] = tested on: immobilized S. aureus cells; assay: Fluorescence microscopy binding of labeled peptides to immobilized bacteria, S. aureus; set-up: species or system Staphylococcus aureus; conditions: for Binding to S. aureus (fluorescent staining): 25 μM fluorescein-labeled peptide, 10 minutes, immobilized cells; for Binding to immobilized S. aureus relative to peptides of the original pilot library: refined libraries, fluorescence images
Description: Peptide samples were prepared at a concentration of 25 μM for screening against a variety of organisms by exposing immobilized bacteria to labeled peptides. For bacterial cell binding assays, cells were grown overnight, washed, and immobilized in a polylysine-coated 96-well plate. Fluorescein-labeled peptide samples were applied to immobilized bacteria, incubated for 10 minutes and washed extensively to remove unbound peptide. Samples were visualized by fluorescence microscopy. For each peptide, both brightfield and fluorescence images were collected, and camera and microscope settings were not altered between images. The locations of cells and background regions were determined using the brightfield images; those regions were then selected in the fluorescence images for quantitation of pixel values for determination of relative fluorescence intensities (represented as bacterial fluorescence/background fluorescence) using the GNU Image Manipulation Program (The GIMP, see, e.g., www.gimp.org).
The following bacterial species and strains were used: Lactobacillus casei (strain), Escherichia coli (W3110), Enterococcus faecium (strain), Streptococcus mutans (UA140), Streptococcus mitis (ATCC 903), Streptococcus gordonii (NY101), Pseudomonas aeruginosa(strain K), Klebsiella pneumoniae (KAY2026), Myxococcus xanthus (Strains DK1622, wildtype, and difA, exopolysaccharide deficient^21), Micrococcus luteus (strain MS2, a community isolate), Staphylococcus epidermidis (strain), and Staphylococcus aureus(strains, and AM1, a methicillin/oxacillin-resistant community isolate).
For isolation of community-acquired S. aureus and M. luteus strains (strains MS2 and AM1), swabs were collected from the nostrils of several volunteers and streaked on Brain-Heart Infusion (BHI) agar and incubated at 37° C. overnight. Yellow colonies were isolated and typed (Microbial ID, Inc., Newark, Del.). Antibiotic resistance was assayed by plating on BHI in the presence of various antibiotics. Commercially available antibiotic susceptibility test disks were used to assay for oxacillin resistance (BD Biosciences), according to the manufacturer's instructions. Due to the difficulty of obtaining methicillin, oxacillin resistance was used as a proxy for methicillin resistance in isolated strains.^22
The peptides comprising these two refined libraries were synthesized, labeled, and screened against immobilized S. aureus cells exactly as for the original pilot library.
To examine the specificities of the peptides identified in this experiment, a diverse panel of various strains of bacteria was assembled, consisting of Lactobacillus casei, Escherichia coli, Enterococcus faecalis, Streptococcus mutans, Streptococcus mitis, Streptococcus gordonii, Pseudomonas aeruginosa, Klebsiella pneumoniae, Micrococcus luteus (strain MS2), Staphylococcus epidermidis, and two strains of Staphylococcus aureus: a methicillin/oxacillin-sensitive community isolate and our methicillin/oxacillin-resistant community isolate of (strain AM1). Peptides 3C and 4D from the original pilot library were screened for binding against these bacteria by fluorescence microscopy, and images were analyzed as before.

## C[C@H](N)C(=O)O [Ala]
[1]
  Hydrophobicity (Fauchere and Pliska, 1983): 0.31

## N=C(N)NCCC[C@H](N)C(=O)O [Arg]
[1]
  Hydrophobicity (Fauchere and Pliska, 1983): −1.01

## NC(=O)C[C@H](N)C(=O)O [Asn]
[1]
  Hydrophobicity (Fauchere and Pliska, 1983): −0.6

## N[C@@H](CC(=O)O)C(=O)O [Asp]
[1]
  Hydrophobicity (Fauchere and Pliska, 1983): −0.77

## NC(=O)CC[C@H](N)C(=O)O [Gln]
[1]
  Hydrophobicity (Fauchere and Pliska, 1983): −0.22

## N[C@@H](CCC(=O)O)C(=O)O [Glu]
[1]
  Hydrophobicity (Fauchere and Pliska, 1983): −0.64

## NCC(=O)O [Gly]
[1]
  Hydrophobicity (Fauchere and Pliska, 1983): 0

## N[C@@H](Cc1c[nH]cn1)C(=O)O [His]
[1]
  Hydrophobicity (Fauchere and Pliska, 1983): 0.13

## CC[C@H](C)[C@H](N)C(=O)O [Ile]
[1]
  Hydrophobicity (Fauchere and Pliska, 1983): 1.8

## CC(C)C[C@H](N)C(=O)O [Leu]
[1]
  Hydrophobicity (Fauchere and Pliska, 1983): 1.7

## NCCCC[C@H](N)C(=O)O [Lys]
[1]
  Hydrophobicity (Fauchere and Pliska, 1983): −0.99

## CSCC[C@H](N)C(=O)O [Met]
[1]
  Hydrophobicity (Fauchere and Pliska, 1983): 1.23

## N[C@@H](Cc1ccccc1)C(=O)O [Phe]
[1]
  Hydrophobicity (Fauchere and Pliska, 1983): 1.79

## O=C(O)[C@@H]1CCCN1 [Pro]
[1]
  Hydrophobicity (Fauchere and Pliska, 1983): 0.72

## C[C@@H](O)[C@H](N)C(=O)O [Thr]
[1]
  Hydrophobicity (Fauchere and Pliska, 1983): 0.26

## N[C@@H](Cc1c[nH]c2ccccc12)C(=O)O [Trp]
[1]
  Hydrophobicity (Fauchere and Pliska, 1983): 2.25

## N[C@@H](Cc1ccc(O)cc1)C(=O)O [Tyr]
[1]
  Hydrophobicity (Fauchere and Pliska, 1983): 0.96

## CC(C)[C@H](N)C(=O)O [Val]
[1]
  Hydrophobicity (Fauchere and Pliska, 1983): 1.22

## AMKDAMERM (synthetic peptide with tissue-specific binding to tooth enamel and enamel-proximal region of dentino-enamel junction) [Pilot Library 4F]
[2]
  Binding to dentin: no obvious binding
  Binding to tooth enamel and enamel side of the dentin-enamel junction: clear binding

## In-plane refinement 3A: in-plane refined library peptide, SEQ ID NO:48 (LIERILQNL; synthetic in-plane refinement library peptide A3)
S. aureus AM1; in words
  Affinity relative to initial hits / parent peptide of the pilot library: increased affinity
M. luteus MS2
  Langmuir Affinity (Ka): 8 ± 3 M^−1 × 10000
  Monolayer Concentration (N): 0.0047 ± 0.006 Mol/m^2 × 0.0001
M. luteus MS2; in words
  Nmax relative to peptides from the parent library: sharp reduction
[3]
  Binding to S. aureus (fluorescent staining): binding was seen only to the methicillin/oxacilin-resistant strain of S. aureus
  Binding to immobilized S. aureus relative to peptides of the original pilot library: enhanced binding

## In-plane refinement B2: in-plane refined library peptide, SEQ ID NO:51 (IVSQVIQNL; synthetic in-plane refinement library peptide B2)
[3]
  Binding to immobilized S. aureus relative to peptides of the original pilot library: enhanced binding

## In-plane refinement B4: in-plane refined library peptide, SEQ ID NO:53 (IVKDVIERL; synthetic in-plane refinement library peptide B4)
[3]
  Binding to immobilized S. aureus relative to peptides of the original pilot library: enhanced binding

## In-plane refinement C1: in-plane refined library peptide, SEQ ID NO:54 (LVSYVLTQV; synthetic in-plane refinement library peptide C1)
[3]
  Binding to immobilized S. aureus relative to peptides of the original pilot library: enhanced binding

## In-plane refinement C2: in-plane refined library peptide, SEQ ID NO:55 (LVSQVLQNV; synthetic in-plane refinement library peptide C2)
[3]
  Binding to immobilized S. aureus relative to peptides of the original pilot library: enhanced binding

## In-plane refinement C4: in-plane refined library peptide, SEQ ID NO:57 (LVKDVLERV; synthetic in-plane refinement library peptide C4)
[3]
  Binding to immobilized S. aureus relative to peptides of the original pilot library: enhanced binding

## Orthogonal refinement 2A: orthogonal refined library peptide, SEQ ID NO:63 (IVVILSQQN; synthetic orthogonal refinement library peptide A2)
S. aureus AM1
  Langmuir Affinity (Ka): 13 ± 4 M^−1 × 10000
  Monolayer Concentration (N): 0.14 ± 0.01 Mol/m^2 × 0.0001
S. aureus AM1; in words
  Affinity relative to initial hits / parent peptide of the pilot library: comparable affinity
  Nmax relative to pilot library hits: significant increase
M. luteus MS2
  Langmuir Affinity (Ka): 1.6 ± 0.7 M^−1 × 10000
  Monolayer Concentration (N): 0.5 ± 0.2 Mol/m^2 × 0.0001
M. luteus MS2; in words
  KA relative to peptides from the parent library: no significant changes
  Nmax relative to peptides from the parent library: no significant changes

## Orthogonal refinement 2B: orthogonal refined library peptide, SEQ ID NO:67 (IVVSQQILN; synthetic orthogonal refinement library peptide B2)
M. luteus MS2
  Langmuir Affinity (Ka): 0.4 ± 0.3 M^−1 × 10000
  Monolayer Concentration (N): 0.5 ± 0.3 Mol/m^2 × 0.0001

## Orthogonal refinement 2C: orthogonal refined library peptide, SEQ ID NO:71 (IVSQVIQNL; synthetic orthogonal refinement library peptide C2)
S. aureus AM1
  Langmuir Affinity (Ka): 1.1 ± 0.3 M^−1 × 10000
  Monolayer Concentration (N): 7 ± 1 Mol/m^2 × 0.0001
M. luteus MS2
  Langmuir Affinity (Ka): 1.4 ± 0.4 M^−1 × 10000
  Monolayer Concentration (N): 0.12 ± 0.03 Mol/m^2 × 0.0001

## Pilot Library 3D: pilot library 9-mer, SEQ ID NO:29; became D1 of the in-plane matrix (SEQ ID NO:58) (VASYVATQV; synthetic pilot library peptide D3)
S. aureus AM1
  Langmuir Affinity (Ka): 6 ± 1 M^−1 × 10000
  Monolayer Concentration (N): 0.18 ± 0.2 Mol/m^2 × 0.0001
M. luteus MS2
  Langmuir Affinity (Ka): 10 ± 7 M^−1 × 10000
  Monolayer Concentration (N): 0.021 ± 0.004 Mol/m^2 × 0.0001
[3]
  Binding to S. aureus (fluorescent staining): some of the brightest unique staining

## Pilot Library 4C: pilot library 9-mer, SEQ ID NO:24; became A4 of the in-plane matrix (SEQ ID NO:49) (LIKDILERL; synthetic pilot library peptide C4)
S. aureus AM1
  Langmuir Affinity (Ka): 5 ± 1 M^−1 × 10000
  Monolayer Concentration (N): 0.23 ± 0.2 Mol/m^2 × 0.0001
M. luteus MS2
  Langmuir Affinity (Ka): 1 ± 0.6 M^−1 × 10000
  Monolayer Concentration (N): 0.10 ± 0.04 Mol/m^2 × 0.0001
[3]
  Binding to S. aureus (fluorescent staining): some of the brightest unique staining

## Pilot Library E4: pilot library 9-mer, SEQ ID NO:36 (AMKDAMERM; synthetic pilot library peptide E4)
[2]
  Binding to dentin: No significant staining
  Binding to tooth enamel and enamel side of the dentin-enamel junction: clear fluorescent staining
